Data from publication PMC9786170, “The Pharmacological Potential of Novel Melittin Variants from the Honeybee and Solitary Bees against Inflammation and Cancer” (Toxins, 2022).

Legend:
[1] = system: triple-negative and HER2-enriched breast cancer subtypes; conditions: cited from earlier work
Text: It was also reported that a positively charged C-terminal peptide end is responsible for the plasma membrane ...

[2] = system: RAW264.7 cells; experiment: Cell viability assay (WST-8/Orangu formazan) in RAW264.7 cells; format: cell-based, murine; conditions: RAW264.7, 25 µg/mL, 24 h, WST-8 formazan absorbance, vehicle = 100%, n = 3
Protocol: Figure 1 Toxicity characterization of cells treated with melittin peptides. (A,B) For the viability assay, RAW264.7 (A) or HEK293T (B) cells were treated with bee venom compounds in the indicated concentrations for 24 h. Cells were incubated with WST-8 and the formed formazan was detected by absorbance measurements. (C) For the proliferation assay, HMEC-1 cells were grown in low density and treated after 24 h with the indicated peptide (25 µg/mL) for 72 h. Cells were stained with crystal violet solution. The amount of DNA-bound crystal violet was detected by absorbance measurements. (D) The number of sub-diploidic cells was determined by staining with propidium iodide (PI) and quantified to assess apoptosis of HUVECs. Data are expressed as mean ± SEM. (A) n = 3, (B) n = 4, (C) n = 2–3, (D) n = 2. * p ≤ 0.05 versus control.
For assessing the cytotoxicity of all peptides, various cell types and assays were utilized. To determine the cell viability of HEK293T and RAW246.7 cells, the Orangu^TM assay (Cell Guidance Systems Ltd., Cambridge, UK) was used, as previously described. 2 × 10^5 HEK293T or 2 × 10^5 RAW246.7 were seeded in 96-well plates. Different concentrations (0, 0.25, 2.5, 25 µg/mL) of melittin peptides or vehicle (DMSO) were added. After 24 h of incubation at 37 °C and 5% CO2, 10 µL of Orangu^TM cell counting solution was added and incubated for 60 min. After incubation, absorbance was measured at a wavelength of 450 nm with a reference at 650 nm at an EnSpire 2300 Multimode Plate Reader (Perkin Elmer, Lübeck, Germany). To calculate cell viability, the absorbance of vehicle-treated cells was set to 100%, and the melittin derivates-treated samples were correlated to them.

[3] = system: HEK293T cells; experiment: cAMP inhibition assay (forskolin-stimulated, pGloSensor-22F); format: cell-based, human; conditions: 5 µM forskolin, 2.5 and 25 µg/mL, pGloSensor luminescence, n = 4
Protocol: Figure 3 Melittin derivates alter the cellular concentration of cyclic adenosine monophosphate (cAMP). (A) For the cAMP induction assay, HEK293T cells transfected with pGloSensor-22F cAMP plasmid were treated with melittin derivates (0.25, 2.5, 25 µg/mL) in presence of the pGloSensor cAMP reagent, and luminescence was detected. (B) For the cAMP inhibition assay, HEK293T cells transfected with pGloSensor-22F cAMP plasmid were treated with melittin derivates (0.25, 2.5, 25 µg/mL) in presence of the pGloSensor cAMP reagent, stimulated with 5 µM forskolin, and luminescence was detected. Data are expressed as mean ± SEM. n = 4, * p ≤ 0.05 versus control.
HEK293T cells were transfected with pGloSensor-22F cAMP plasmid (E2301, Promega, Walldorf, Germany) using turbofect reagent (Thermofisher Scientific, Frankfurt am Main, Germany). […] For the induction assay (step one), the luminescence was detected (background, 3 measurements every 5 min) and then the melittin peptides (0.25, 2.5, 25 µg/mL) or 5 µM forskolin were added. The luminescence was detected (3 measurements every 5 min) using the plate reader (Spark, Tecan, Männedorf, Switzerland). For the inhibition assay (step tow), the melittin peptide-treated cells were then incubated with 5 µM forskolin and the luminescence was detected (3 measurements every 5 min). […]

[4] = system: MDA-MB-231 cells; experiment: Apoptosis of MDA-MB-231 cells (propidium iodide, flow cytometry); format: cell-based, human; conditions: MDA-MB-231, 25 µg/mL, 24 h, 48 h and 72 h, PI, n = 2
Protocol: Figure 5 Anti-proliferative and apoptotic effect of melittin derivates on the triple-negative breast cancer cell line MDA-MB-231. (A) For the proliferation assay, cells were grown in low density and were treated after 24 h with melittin peptides at a concentration of 25 µg/mL for 72 h. Cells were stained with crystal violet solution. The amount of DNA-bound crystal violet was detected by absorbance measurements. (B) Melt3, 4, and Xac4, which are non-toxic to healthy cells, were further used to test effects on proliferation at 24 h (left) and 48 h (right) at different concentrations. (C) The effects on apoptosis were detected by flow cytometry after 24 h (left), 48 h (middle), and 72 h (right) of treatment. The number of apoptotic cells was determined by staining with propidium iodide (PI). Data are expressed as mean ± SEM. n = 2, * p ≤ 0.05 versus control. Sts, staurosporin 1 µM.
Apoptosis of primary HUVECs was detected according to the method of Nicoletti et al.. […] The percentage of cells with sub-diploidic DNA content was measured using a FACSVerse flow cytometer (BD Biosciences, Heidelberg, Germany).

Row | Substance | apoptosis of breast cancer subtypes [1] | reduction of cell viability [2] | prevention of cAMP synthesis, forskolin-stimulated cells [3] | apoptosis / cancer cell death [4]
1 | melittin [Melt, reference compound] | induce apoptosis | more than 90% | almost completely prevented cAMP synthesis | –
2 | xylopin [Xac4] | – | – | – | trend of decreased proliferation and increased apoptosis
